Here are results for six compounds from PMC6927412, “PMP–diketopiperazine adducts form at the active site of a PLP dependent enzyme involved in formycin biosynthesis” (Chemical Communications (Cambridge, England), 2019).

For experiment [1], the target named is T1, ForI (Streptomyces kaniharaensis, UniProt A0A5S8ZI02).
T1 construct: gene cof17; homodimer, active site from both monomers; residues 3 to 417 located in crystal
T1 sequence (A0A5S8ZI02 1-423): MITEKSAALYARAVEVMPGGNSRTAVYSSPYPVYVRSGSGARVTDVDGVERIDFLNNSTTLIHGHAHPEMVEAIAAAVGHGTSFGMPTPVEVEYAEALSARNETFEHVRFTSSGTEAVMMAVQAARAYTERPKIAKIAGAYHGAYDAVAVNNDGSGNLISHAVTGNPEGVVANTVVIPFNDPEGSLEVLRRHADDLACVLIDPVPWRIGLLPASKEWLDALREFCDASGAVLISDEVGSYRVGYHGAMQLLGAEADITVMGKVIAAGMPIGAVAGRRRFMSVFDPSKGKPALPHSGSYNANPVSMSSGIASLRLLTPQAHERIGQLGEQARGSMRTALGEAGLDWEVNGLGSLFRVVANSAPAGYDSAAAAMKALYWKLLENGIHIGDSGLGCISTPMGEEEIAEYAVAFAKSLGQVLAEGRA
Briefly: UV-vis, mass spectrometry and crystal structure of the adduct. The class given is binding. The following applies: covalent; reacts at PLP, bound species is the PMP-diketopiperazine adduct; 10 mM, pH 8, 4 °C.

The target of experiment [2] is T1, ForI. Briefly: UV-vis spectrum of PLP cofactor; PMP form seen in crystal. The class given is biochemical. The note with it: amino donor half-reaction; L-Glu itself not seen in density.
Experiment [3] deals with T1, ForI. Kind of experiment: X-ray crystal structure, […] Å. The following applies: crystals incubated with L-Glu for 20 min; non-covalent. The class given is binding.
For experiment [4], the target named is T1, ForI. Kind of experiment: X-ray crystal structure, […] Å; mass spectrometry. The class given is binding. The note with it: pH 8.

Take `N[C@@H]1CONC1=O` [D-cycloserine]: the “UV-vis, mass spectrometry and crystal structure of the adduct” value on ForI [1] is recorded as “Incubation of ForI with either D- or L-cycloserine immediately shows changes in the UV-vis spectrum”. Turning to `N[C@@H](CCC(=O)O)C(=O)O` [L-Glu], at ForI [2], the “UV-vis spectrum of PLP cofactor; PMP form seen in crystal” value was “Incubating ForI with L-Glu shows a rapid change in the UV-vis spectrum”. For the compound `N[C@H]1CONC1=O` [L-cycloserine], the “UV-vis, mass spectrometry and crystal structure of the adduct” value at ForI [1] is on record as “Incubation of ForI with either D- or L-cycloserine immediately shows changes in the UV-vis spectrum”. On to `Cc1ncc(COP(=O)(O)O)c(CN)c1O` [PMP], for which, at ForI [3], the “X-ray crystal structure, 1.56 Å” value is reported as “the pyridoxal co-factor is unattached to the enzyme, suggesting it to be PMP”. As to `Cc1ncc(COP(=O)(O)O)c(/C=N/OC[C@H]2NC(=O)[C@@H](CON)NC2=O)c1O` [PMP–diketopiperazine from D-cycloserine], the “X-ray crystal structure, 1.5 Å; mass spectrometry” value on ForI [4] (covalent adduct of PLP cofactor formed on incubation with 10 mM D-cycloserine) is “identified the formation of external aldimine PLP–diketopiperazine adducts”. As for `Cc1ncc(COP(=O)(O)O)c(/C=N/OC[C@@H]2NC(=O)[C@H](CON)NC2=O)c1O` [PMP–diketopiperazine from L-cycloserine], at ForI [4] (covalent adduct of PLP cofactor formed on incubation with 10 mM L-cycloserine), the “X-ray crystal structure, 1.5 Å; mass spectrometry” value is listed as “identified the formation of external aldimine PLP–diketopiperazine adducts”.
